Data: patent US12208105B2, “Methods for attenuating graft-versus-host disease and opportunistic infections” (priority 2018, dated 2025)
pIC50: −log10 of the molar value. Where two headings read alike, the source gives them in different places.

What was measured:
CCR1 = target: T1, CCR1 (Homo sapiens, UniProt P32246); conditions: cited from earlier work
T1 sequence (P32246 1-355): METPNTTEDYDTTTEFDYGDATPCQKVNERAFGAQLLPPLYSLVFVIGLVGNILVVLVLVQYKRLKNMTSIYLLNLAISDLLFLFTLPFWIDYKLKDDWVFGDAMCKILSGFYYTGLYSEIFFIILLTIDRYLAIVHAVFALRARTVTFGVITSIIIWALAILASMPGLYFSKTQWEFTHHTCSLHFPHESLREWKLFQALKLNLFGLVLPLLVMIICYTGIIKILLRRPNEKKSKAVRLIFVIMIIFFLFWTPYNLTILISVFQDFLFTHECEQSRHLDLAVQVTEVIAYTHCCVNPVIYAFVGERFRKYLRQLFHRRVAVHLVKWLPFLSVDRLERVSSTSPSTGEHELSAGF

[1] = cited from earlier work
B6 into B6D2 aGVHD model = experiment: aGVHD, B6 into B6D2 transplant, cosalane dosed systemically; assay type: in vivo, mouse
Description: Transplantation Procedures: Recipient mice were irradiated on transplant day −1. Recipients were then administered T cell depleted (TCD) bone marrow cells +/−CD25^− column-purified conventional T cells (Tcons) to induce aGVHD as previously described (Wysocki et al., J. Immunol. 173:845 (2004); Carlson et al., Blood 113:1365 (2009)). Tcons consisted of CD4^+ and CD8^+ T cells in a 1:1 ratio. For ex-vivo cosalane incubations, cell populations were suspended in serum/protein free injectable saline unless otherwise indicated. […] The cells were then administered immediately to recipients by tail vein injection.

[2] = system: P815 murine mastocytoma cells; experiment: P815 graft-versus-leukemia model with in vivo imaging
Description: B6D2 mice were lethally irradiated on transplant day −1. On day 0 recipients were administered 3×10^6 TCD B6 BM cells and 2.5×10^4 luciferase^+ P815 murine mastocytoma cells (H-2^d)+/−4×10^6 B6 Tcons. Donor Tcons were incubated ex vivo with DMSO vehicle or cosalane diluted in normal saline at 15 μg/ml. The cells were then mixed with untreated BM/tumor cells and administered immediately to recipient mice by tail vein injection. Mice were then serially imaged twice weekly following the intraperitoneal injection of luciferin. […] Recipient mortality was attributed to tumor versus aGVHD based on the tumor burden by imaging and clinical aGVHD scores at the time of death. Exposure time=4 seconds for all panels. N=5 per treatment group.
B6D2 mice were lethally irradiated on transplant day −1. On day 0 recipients were administered 3×10^6 TCD B6 BM cells and 2.5×10^4 luciferase^+ P815 murine mastocytoma cells. Some recipients also received 2×10^6 DMSO treated B6 Tcons or 4×10^6 cosalane treated B6 Tcons (15 μg/ml). Mice were then serially imaged twice weekly following the intraperitoneal injection of luciferin. […] Exposure time=4 seconds for all panels. The “mixed” cage on the far right contained one mouse each of the BM/P815 only, BM/P815 plus DMSO Tcons, and BM/P815 plus cosalane Tcons groups. N=6 per treatment group.
P815 graft-versus-leukemia model and in vivo imaging: Luciferase transfected P815 murine mastocytoma cells (H-2^d) were a kind gift from the laboratory of Dr. Jonathan Serody. P815 cells were cultured and then mixed with TCD bone marrow cells prior to transplantation. A tumor dose of 2.5×10^4 P815 cells was used for all experiments. Recipients were then serially imaged using an IVIS Kinetic Optical real-time imaging system to monitor for in vivo tumor growth twice weekly. For imaging, recipients were dosed with 3 mg of D-luciferin (Perkin Elmer) by intraperitoneal injection 10 minutes prior to the procedure. Mice were then anesthetized with isoflurane during image acquisition. Unless otherwise indicated an exposure time of 4 seconds was used for all images.
As a result, we evaluated cosalane's effects on GVL immunity using a well described P815 murine mastoma (H-2^d) leukemia model. Here, B6D2 mice were lethally irradiated and then administered 3×10^6 TCD B6 bone marrow cells containing 25,000 luciferase transfected P815 cells +/−4×10^6 B6 Tcons to drive a GVL response. One half of those mice receiving BM/Tumor plus Tcons were administered Tcons incubated with DMSO and the other one half received cosalane treated Tcons. Recipients were subsequently evaluated by serial in vivo imaging in order to monitor tumor growth in each treatment group. […]

TNF and IFN-γ = experiment: Organ inflammatory cytokines by ELISA after HSCT; conditions: day +14
Description: (A, B) B6D2 mice were lethally irradiated on transplant day −1. On day 0 recipients were administered 3×10^6 TCD B6 BM cells +/−4×10^6 B6 Tcons. Donor TCD BM cells, donor Tcons, both cell populations, or neither were incubated ex vivo with cosalane at 15 μg/ml for one hour prior to transplant. Those cells not treated with cosalane were incubated with an equal volume of DMSO vehicle. Mice were then followed for survival and scored for aGVHD. N=2 BM only. N=5 for all other treatment groups. […] (C, D) B6D2 mice were lethally irradiated on transplant day −1. On day 0 recipients were administered 3×10^6 TCD eGFP^− B6 BM cells plus 4×10^6 eGFP^+ B6 Tcons. Donor Tcons were incubated ex vivo with DMSO vehicle or cosalane diluted in normal saline at 15 μg/ml. The cells were then mixed with untreated TCD B6 BM cells and administered immediately to recipient mice by tail vein injection. Recipient mice were subsequently killed on day +7 (C) or day +14 (D). Lymphoid organs (left panels) and aGVHD target organs (right panels) were subsequently harvested and homogenized. Total eGFP levels were then determined using an anti-eGFP ELISA. N=7 per treatment group. […] (E, F) B6D2 mice were transplanted as in (C, D) and their organs removed and homogenized on day +7 (E) or day +14 (F). Total IFN-y (left panels) and TNF (right panels) was then determined by ELISA. N=7 per treatment group.

[3] = system: CCR7-/- B6 into BALB/c aGVHD model; experiment: aGVHD induced with CCR7-/- B6 Tcons into BALB/c
Description: (A, B) BALB/c mice were lethally irradiated on transplant day −1. On day 0 recipients were administered 5×10^6 TCD B6 BM cells +/−3×10^6 CCR7^−/− B6 Tcons. Donor Tcons were incubated ex vivo with DMSO vehicle or cosalane diluted in normal saline at 15 μg/ml. The cells were then mixed with untreated TCD B6 BM cells and administered immediately to recipient mice by tail vein injection. Mice were then followed for survival and scored for aGVHD. N=2 BM only. N=6 for all other treatment groups. […] (C, D) BALB/c mice were transplanted as in A, B. Donor CCR7^−/− B6 Tcons, however, were incubated ex vivo with DMSO vehicle or cosalane diluted in normal saline at 30 μg/ml. N=2 BM only. N=9 for all other treatment groups.
As a result, we repeated our CCR7^−/− B6 into BALB/c transplant but pre-incubated the donor Tcons with an identical cosalane strength of 30 μg/ml.

[4] = system: murine cytomegalovirus (mCMV); experiment: Murine cytomegalovirus plaque assay on 3T3 fibroblasts; assay type: cell-based
CCR7 = target: T2, CCR7 (Mus musculus, UniProt P47774); experiment: Trans-well chemotaxis assay, primary murine T cells; assay type: cell-based
T2 construct: confirm that hits identified in the HTS were active against native CCR7; endogenous in cells; host or cells: primary naive (CD25neg) T cells from C57BL/6 mice
T2 sequence (P47774 25-378): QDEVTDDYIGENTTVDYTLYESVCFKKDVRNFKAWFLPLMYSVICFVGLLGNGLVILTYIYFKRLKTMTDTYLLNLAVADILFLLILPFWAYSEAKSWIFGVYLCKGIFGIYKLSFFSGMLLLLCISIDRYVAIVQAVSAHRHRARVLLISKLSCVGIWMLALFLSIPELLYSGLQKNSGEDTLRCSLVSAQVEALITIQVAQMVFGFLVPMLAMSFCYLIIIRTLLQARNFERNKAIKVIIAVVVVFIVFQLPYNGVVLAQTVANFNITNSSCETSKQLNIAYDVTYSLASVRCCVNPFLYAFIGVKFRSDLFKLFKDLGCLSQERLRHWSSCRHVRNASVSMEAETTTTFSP
Description: FIGS. 1A-1D show cosalane impairs CCR7 driven human and murine chemotaxis. (A, B) Chemotaxis media with or without CCL19 (A) or CCL21 (B) was added to the lower chambers of the chemotaxis device. Previously untreated H9 cells were then placed in the upper chambers of the device with or without cosalane at a concentration of 2 μM. The chamber was then placed at 37° C. for 3.5 hours and total H9 migration from each upper to lower chamber determined. (A) *P=0.048 for comparison between H9 cells/30 nM CCL19 and H9 cells/30 nM CCL19/2 μM cosalane by Student's t test. (B) P>0.05 for comparison between H9 cells/200 nM CCL21 and H9 cells/200 nM CCL21/2 μM cosalane. (C, D) Chemotaxis media with or without CCL19 (C) or CCL21 (D) was added to the lower chambers of the chemotaxis device. Previously untreated primary murine T cells were then placed in the upper chambers of the device with or without cosalane at a concentration of 2 μM. Total T cell migration from each upper to lower chamber was then determined. (C) *P=0.029. (D) *P<0.001.
While useful from a screening perspective, our primary reporter assays for the HTS were not physiologic. As a result, it was important to confirm that hits identified in the HTS were active against native CCR7 and could block an actual function mediated by the receptor. For this, we used a well-described trans-well chemotaxis assay system using human H9 cells, a cutaneous T cell lymphoma line known to express high levels of CCR7 and to migrate in response to its ligands (Ott et al., J. Pharmacol. Toxicol. Meth. 51:105 (2005)). In addition, we utilized primary mouse, naïve (CD25^neg) T cells obtained from C57BL/6 mice. As depicted in FIG. 1A, human H9 cells placed in the upper chambers of the chemotaxis device readily migrated through the separating membrane when CCL19 was present in the lower chamber. […] Similarly, murine T cell chemotaxis was also impaired by cosalane in response to both CCL19 and CCL21 (FIGS. 1C-1D).
To evaluate this possibility, human H9 cells were incubated with 10 mcg/ml (13 μM) of cosalane versus DMSO vehicle for one hour and then washed free of the compound. The cells were then placed into the chemotaxis chamber as was done in FIGS. 1A-1D. […] Similar experiments were performed with naïve primary mouse T cells.

Murine CCR7 = target: T3, Murine CCR7 (Mus musculus, UniProt P47774); experiment: HTS primary reporter assay, murine CCR7; assay type: cell-based
T3 sequence (P47774 25-378): T2 sequence (P47774 25-378)

[5] = 4×10^6 Tcons incubated 15 μg/ml
[6] = 4×10^6 cosalane treated Tcons vs 2×10^6 DMSO Tcons
[7] = 10 mcg/ml (13 μM), then washed, vs DMSO

Q: For `CC(C)CCC[C@@H](C)[C@H]1CC[C@H]2[C@@H]3CC[C@H]4C[C@@H](CCC=C(c5cc(Cl)c(O)c(C(=O)O)c5)c5cc(Cl)c(O)c(C(=O)O)c5)CC[C@]4(C)[C@H]3CC[C@]12C` [Cosalane, cosalane], which “CCR1 dependent chemotaxis in response to CCL3 and CCL4” value (CCR1) is on record?
A: The value was “inactive”.

Q: What about the “CCR1 dependent chemotaxis in response to CCL5” value (CCR1) of the same molecule?
A: The value was “blocked”.

Q: What about the tissue accumulation ([1]; administered intravenously) of the same molecule?
A: Its tissue accumulation is “propensity to accumulate within the liver”.

Q: What about the oral bioavailability ([1]; in vivo, po) of the same molecule?
A: Its oral bioavailability is “very poor oral bioavailability”.

Q: And the “aGVHD (survival and scores) with systemic dosing” value (B6 into B6D2 aGVHD model; 10 mg/kg intravenous, day 0, +3, +6)?
A: Its value is “did not attenuate aGVHD and may have actually worsened clinical outcomes”.

Q: And the “dosages much better tolerated by irradiated recipients” value (B6 into B6D2 aGVHD model; irradiated recipients, 10 mg/kg excessively high)?
A: The value was 0.5 to 2 mg/kg.

Q: What about the overall survival times [2, 5] of the same molecule?
A: The overall survival times was “longest overall survival times”.

Q: What about the tumor growth [2, 5] of the same molecule?
A: Its tumor growth is “substantial suppression of tumor growth”.

Q: What about the “mice died of aGVHD” value [2, 6] of the same molecule?
A: Its value is 3/6.

Q: What about the “mice succumbed to malignancy” value [2, 6] of the same molecule?
A: Its value is “none succumbed to malignancy”.

Q: And the “TNF and IFN-γ levels in the host colon” value (TNF and IFN-γ)?
A: Its value is “significantly reduced”.

Q: What about the “aGVHD with CCR7-/- donor Tcons” value ([3]; Tcons incubated 15 μg/ml) of the same molecule?
A: Its value is “completely inactive”.

Q: What about the “aGVHD scores with CCR7-/- donor Tcons” value ([3]; Tcons incubated 30 μg/ml) of the same molecule?
A: Its value is “trend for lower aGVHD scores”.

Q: And the “survival times with CCR7-/- donor Tcons” value ([3]; Tcons incubated 30 μg/ml)?
A: The value was “longer survival times”.

Q: What about the “mCMV plaque number / activity, compound in infectivity media” value ([4]; 15 μg/ml throughout infection, MOI 0.05 and 0.005, vs DMSO) of the same molecule?
A: Its value is “significantly reduced plaque number”.

Q: What about the “mCMV visible cytopathic effect, isolated pretreatment of 3T3 cells” value ([4]; pretreatment only) of the same molecule?
A: Its value is “virtually no effect”.

Q: What about the “murine T cell chemotaxis in response to CCL19” value (CCR7; 2 μM cosalane in upper chamber) of the same molecule?
A: Its value is “impaired”.

Q: What about the “murine T cell chemotaxis in response to CCL21” value (CCR7; 2 μM cosalane in upper chamber) of the same molecule?
A: The value was “impaired”.

Q: And the “primary murine T cell chemotaxis in response to CCL19 after pretreatment” value (CCR7; [7])?
A: Its value is “significantly reduced”.

Q: What about the “primary murine T cell chemotaxis in response to CCL21 after pretreatment” value (CCR7; [7]) of the same molecule?
A: Its value is “significantly reduced”.

Q: And the pIC50 (Murine CCR7; ligand CCL19, read-out: Murine CCR7 IC50 To CCL19)?
A: The pIC50 was 6.71.

Q: And the pIC50 (Murine CCR7; ligand CCL21, read-out: Murine CCR7 IC50 To CCL21)?
A: Its pIC50 is 5.70.
